Assay [1] relates to Fibroblast growth factor receptor 3 (Homo sapiens), P22607 [K650E]. The experiment in a line: (§1) Selectivity interaction (Kinase panel (Z-LYTE Assay)) EUB0001632a FGFR3. The conditions noted are these: at 10 µM.
The target in assay [2] is Fibroblast growth factor receptor 3 (Homo sapiens, UniProt P22607). The assay is described as §1. The conditions noted are these: at 10 µM.
Assay [3] deals with Insulin receptor-related protein (Homo sapiens) (UniProt P14616). The conditions noted are these: at 10 µM.
Assay [4] concerns the target Casein kinase I isoform gamma-1 (Homo sapiens) (UniProt Q9HCP0). The conditions noted are these: at 10 µM.
For assay [5], the target named is High affinity nerve growth factor receptor (Homo sapiens, UniProt P04629). The experiment in a line: Selectivity interaction (KinomeScan (DiscoverX)) EUB0000045b NTRK1.
Assay [6] deals with Serine/threonine-protein kinase WNK2 (Homo sapiens) (UniProt Q9Y3S1). The assay is described as follows: Selectivity interaction (Upstate Kinase Profiler service (Millipore)) EUB0000056c WNK2. The conditions noted are these: at 1 µM.
Assay [7] addresses MAP kinase-interacting serine/threonine-protein kinase 1 (Homo sapiens) (UniProt Q9BUB5). The experiment in a line: Selectivity interaction (KinomeScan (DiscoverX)) EUB0000618a MKNK1. The conditions noted are these: at 10 µM.
The target of assay [8] is T1, Cyclin-dependent kinase-like 2 (Homo sapiens) (UniProt Q92772).
T1 sequence (whole entry): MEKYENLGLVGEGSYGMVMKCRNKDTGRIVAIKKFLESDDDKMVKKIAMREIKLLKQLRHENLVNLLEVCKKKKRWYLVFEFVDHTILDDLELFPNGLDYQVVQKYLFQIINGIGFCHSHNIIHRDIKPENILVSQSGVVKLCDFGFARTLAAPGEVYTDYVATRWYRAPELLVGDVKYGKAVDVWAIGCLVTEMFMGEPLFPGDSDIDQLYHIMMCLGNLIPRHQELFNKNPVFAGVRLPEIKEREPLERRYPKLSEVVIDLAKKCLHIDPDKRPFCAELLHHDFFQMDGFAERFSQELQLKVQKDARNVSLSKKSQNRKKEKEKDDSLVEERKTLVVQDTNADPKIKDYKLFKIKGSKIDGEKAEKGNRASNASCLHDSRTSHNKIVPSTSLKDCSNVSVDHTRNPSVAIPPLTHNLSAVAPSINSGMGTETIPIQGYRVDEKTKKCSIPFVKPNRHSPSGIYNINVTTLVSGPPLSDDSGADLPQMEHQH
The experiment in a line: Selectivity interaction (KinomeScan (DiscoverX)) EUB0000092b CDKL2. The conditions noted are these: at 10 µM.

For assay [9], the target named is T2, MAP/microtubule affinity-regulating kinase 4 (Homo sapiens) (UniProt Q96L34).
T2 sequence (whole entry): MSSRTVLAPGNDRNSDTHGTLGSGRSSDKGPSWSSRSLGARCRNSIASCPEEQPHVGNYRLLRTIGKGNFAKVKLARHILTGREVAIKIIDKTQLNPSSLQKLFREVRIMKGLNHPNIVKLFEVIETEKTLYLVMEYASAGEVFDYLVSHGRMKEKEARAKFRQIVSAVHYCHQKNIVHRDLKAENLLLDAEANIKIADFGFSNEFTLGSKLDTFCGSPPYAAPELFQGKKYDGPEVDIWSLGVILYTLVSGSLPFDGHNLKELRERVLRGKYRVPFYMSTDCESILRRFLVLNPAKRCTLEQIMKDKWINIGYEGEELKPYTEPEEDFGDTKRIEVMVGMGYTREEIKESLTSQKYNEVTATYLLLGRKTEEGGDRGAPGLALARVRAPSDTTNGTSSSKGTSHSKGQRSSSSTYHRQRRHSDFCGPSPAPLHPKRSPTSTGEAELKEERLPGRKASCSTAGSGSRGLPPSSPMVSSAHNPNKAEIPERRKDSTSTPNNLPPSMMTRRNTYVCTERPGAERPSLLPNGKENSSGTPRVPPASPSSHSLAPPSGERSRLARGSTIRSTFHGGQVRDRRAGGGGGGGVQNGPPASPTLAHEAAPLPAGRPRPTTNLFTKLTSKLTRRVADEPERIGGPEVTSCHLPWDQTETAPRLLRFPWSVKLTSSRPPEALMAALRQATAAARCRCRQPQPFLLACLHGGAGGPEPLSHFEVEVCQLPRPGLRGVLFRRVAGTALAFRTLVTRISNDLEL
The assay is described as follows: Selectivity interaction (Kinase panel (DSF assay)) EUB0001558a MARK4.

Assay [10] addresses T3, Dual serine/threonine and tyrosine protein kinase (Homo sapiens) (UniProt Q6XUX3).
T3 sequence (whole entry): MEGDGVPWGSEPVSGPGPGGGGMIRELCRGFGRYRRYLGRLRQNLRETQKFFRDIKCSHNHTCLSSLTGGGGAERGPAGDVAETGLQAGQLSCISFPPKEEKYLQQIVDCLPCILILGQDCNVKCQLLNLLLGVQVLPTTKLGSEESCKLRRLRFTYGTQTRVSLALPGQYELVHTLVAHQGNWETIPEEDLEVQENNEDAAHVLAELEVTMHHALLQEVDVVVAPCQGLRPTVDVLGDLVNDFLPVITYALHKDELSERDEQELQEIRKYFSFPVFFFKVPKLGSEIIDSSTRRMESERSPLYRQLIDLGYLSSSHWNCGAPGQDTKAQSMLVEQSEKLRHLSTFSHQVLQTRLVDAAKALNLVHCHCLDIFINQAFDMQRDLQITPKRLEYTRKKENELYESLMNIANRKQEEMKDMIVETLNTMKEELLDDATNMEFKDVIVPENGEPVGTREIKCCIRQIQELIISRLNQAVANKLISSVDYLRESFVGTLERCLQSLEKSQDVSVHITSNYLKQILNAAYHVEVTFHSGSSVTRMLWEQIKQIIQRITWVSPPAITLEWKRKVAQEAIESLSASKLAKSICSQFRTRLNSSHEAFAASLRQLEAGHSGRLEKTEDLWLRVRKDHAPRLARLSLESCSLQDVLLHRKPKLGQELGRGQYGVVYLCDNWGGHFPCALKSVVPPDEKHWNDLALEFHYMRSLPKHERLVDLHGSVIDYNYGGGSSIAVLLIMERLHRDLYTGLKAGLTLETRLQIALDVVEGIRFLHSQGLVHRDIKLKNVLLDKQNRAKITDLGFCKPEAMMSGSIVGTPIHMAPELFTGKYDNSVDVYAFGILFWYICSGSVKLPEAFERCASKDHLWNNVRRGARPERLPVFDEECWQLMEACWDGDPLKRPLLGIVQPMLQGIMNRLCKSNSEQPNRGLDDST
The experiment in a line: Selectivity interaction (KinomeScan (DiscoverX)) EUB0000229b DSTYK. The conditions noted are these: at 10 µM.

In assay [11] the target is Ribosomal protein S6 kinase alpha-5 (Homo sapiens) (UniProt O75582). The experiment in a line: Selectivity interaction (KinomeScan (DiscoverX)) EUB0000229b RPS6KA5. The conditions noted are these: at 10 µM.

Chain of High affinity nerve growth factor receptor (P04629 33-796 limits assumed): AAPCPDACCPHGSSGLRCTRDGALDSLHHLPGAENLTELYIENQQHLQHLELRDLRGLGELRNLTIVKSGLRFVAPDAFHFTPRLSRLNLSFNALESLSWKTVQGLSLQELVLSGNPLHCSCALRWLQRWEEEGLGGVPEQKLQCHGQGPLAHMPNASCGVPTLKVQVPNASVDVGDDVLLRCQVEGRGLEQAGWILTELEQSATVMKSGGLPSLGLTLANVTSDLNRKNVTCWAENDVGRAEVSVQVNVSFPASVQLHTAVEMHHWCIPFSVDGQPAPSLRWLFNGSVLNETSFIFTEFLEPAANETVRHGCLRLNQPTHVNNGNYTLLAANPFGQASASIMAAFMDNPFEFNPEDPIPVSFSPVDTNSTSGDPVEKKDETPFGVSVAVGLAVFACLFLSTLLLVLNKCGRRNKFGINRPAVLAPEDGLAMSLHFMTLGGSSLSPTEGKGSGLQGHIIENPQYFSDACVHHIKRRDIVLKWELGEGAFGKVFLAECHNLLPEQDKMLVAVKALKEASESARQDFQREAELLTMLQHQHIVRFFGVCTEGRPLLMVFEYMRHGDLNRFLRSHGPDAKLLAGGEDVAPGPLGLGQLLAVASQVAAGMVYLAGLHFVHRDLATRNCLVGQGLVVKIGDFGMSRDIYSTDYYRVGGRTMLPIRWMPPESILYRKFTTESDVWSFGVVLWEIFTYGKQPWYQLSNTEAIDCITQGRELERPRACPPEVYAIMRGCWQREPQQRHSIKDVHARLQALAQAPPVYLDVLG
Chain of MAP kinase-interacting serine/threonine-protein kinase 1 (Homo sapiens) (Q9BUB5 whole entry, looked up): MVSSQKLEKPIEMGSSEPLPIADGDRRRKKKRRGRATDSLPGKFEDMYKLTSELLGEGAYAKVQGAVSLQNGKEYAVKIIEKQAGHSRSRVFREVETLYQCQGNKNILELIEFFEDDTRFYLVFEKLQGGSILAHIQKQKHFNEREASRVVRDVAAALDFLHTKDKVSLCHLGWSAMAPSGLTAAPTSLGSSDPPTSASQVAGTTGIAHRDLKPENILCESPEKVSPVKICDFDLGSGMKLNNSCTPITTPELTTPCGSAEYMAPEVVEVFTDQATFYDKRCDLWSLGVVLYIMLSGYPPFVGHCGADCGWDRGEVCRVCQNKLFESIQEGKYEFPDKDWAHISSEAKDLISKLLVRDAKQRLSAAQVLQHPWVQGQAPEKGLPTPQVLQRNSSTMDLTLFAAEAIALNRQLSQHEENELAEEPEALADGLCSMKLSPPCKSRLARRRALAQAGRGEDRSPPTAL
Chain of Fibroblast growth factor receptor 3 (Homo sapiens), P22607 [K650E] (P22607 whole entry K650E): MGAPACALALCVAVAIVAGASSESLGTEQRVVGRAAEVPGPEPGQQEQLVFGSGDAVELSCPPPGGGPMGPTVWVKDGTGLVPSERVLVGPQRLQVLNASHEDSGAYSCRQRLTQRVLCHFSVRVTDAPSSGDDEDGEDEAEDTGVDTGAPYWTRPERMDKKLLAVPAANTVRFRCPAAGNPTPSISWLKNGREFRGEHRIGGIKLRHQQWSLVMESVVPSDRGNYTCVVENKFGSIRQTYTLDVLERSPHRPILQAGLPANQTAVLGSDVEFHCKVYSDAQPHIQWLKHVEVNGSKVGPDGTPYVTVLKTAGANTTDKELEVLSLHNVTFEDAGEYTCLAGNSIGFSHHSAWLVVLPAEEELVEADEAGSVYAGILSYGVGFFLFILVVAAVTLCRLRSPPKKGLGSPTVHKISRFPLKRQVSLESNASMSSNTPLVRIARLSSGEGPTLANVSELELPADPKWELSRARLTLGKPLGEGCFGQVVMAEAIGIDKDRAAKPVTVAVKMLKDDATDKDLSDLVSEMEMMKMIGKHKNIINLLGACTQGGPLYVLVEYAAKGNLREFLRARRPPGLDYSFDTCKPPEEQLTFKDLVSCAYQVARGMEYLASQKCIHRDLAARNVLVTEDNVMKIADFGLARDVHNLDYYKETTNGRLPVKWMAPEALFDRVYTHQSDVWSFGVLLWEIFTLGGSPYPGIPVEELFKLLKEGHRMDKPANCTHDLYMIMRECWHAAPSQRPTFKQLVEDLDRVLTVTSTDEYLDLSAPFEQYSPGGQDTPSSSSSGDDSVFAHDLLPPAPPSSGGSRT
Chain of Fibroblast growth factor receptor 3 (P22607 23-806 limits assumed): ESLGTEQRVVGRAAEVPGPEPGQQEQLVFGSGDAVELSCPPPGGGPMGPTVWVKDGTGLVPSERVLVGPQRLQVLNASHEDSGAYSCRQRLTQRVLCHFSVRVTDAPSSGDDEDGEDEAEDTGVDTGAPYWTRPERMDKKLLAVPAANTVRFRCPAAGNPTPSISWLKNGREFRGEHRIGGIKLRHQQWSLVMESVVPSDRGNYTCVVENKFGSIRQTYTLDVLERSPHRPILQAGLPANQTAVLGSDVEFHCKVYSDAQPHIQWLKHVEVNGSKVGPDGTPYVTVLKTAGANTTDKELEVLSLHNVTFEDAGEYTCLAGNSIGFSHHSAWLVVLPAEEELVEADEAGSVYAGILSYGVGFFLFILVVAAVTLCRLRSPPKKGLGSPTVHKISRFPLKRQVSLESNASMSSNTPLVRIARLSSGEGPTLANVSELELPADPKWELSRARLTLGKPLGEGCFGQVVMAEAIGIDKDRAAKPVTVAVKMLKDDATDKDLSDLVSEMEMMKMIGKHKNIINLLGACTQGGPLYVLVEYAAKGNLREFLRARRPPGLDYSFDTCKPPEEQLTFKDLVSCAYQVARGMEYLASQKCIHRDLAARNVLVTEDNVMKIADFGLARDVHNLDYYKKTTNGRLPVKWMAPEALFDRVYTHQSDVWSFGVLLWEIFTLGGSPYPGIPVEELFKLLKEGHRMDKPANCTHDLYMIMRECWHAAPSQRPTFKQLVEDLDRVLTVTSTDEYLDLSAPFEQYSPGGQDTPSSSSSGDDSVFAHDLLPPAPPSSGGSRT
Chain of Casein kinase I isoform gamma-1 (Homo sapiens) (Q9HCP0 whole entry, looked up, canonical isoform): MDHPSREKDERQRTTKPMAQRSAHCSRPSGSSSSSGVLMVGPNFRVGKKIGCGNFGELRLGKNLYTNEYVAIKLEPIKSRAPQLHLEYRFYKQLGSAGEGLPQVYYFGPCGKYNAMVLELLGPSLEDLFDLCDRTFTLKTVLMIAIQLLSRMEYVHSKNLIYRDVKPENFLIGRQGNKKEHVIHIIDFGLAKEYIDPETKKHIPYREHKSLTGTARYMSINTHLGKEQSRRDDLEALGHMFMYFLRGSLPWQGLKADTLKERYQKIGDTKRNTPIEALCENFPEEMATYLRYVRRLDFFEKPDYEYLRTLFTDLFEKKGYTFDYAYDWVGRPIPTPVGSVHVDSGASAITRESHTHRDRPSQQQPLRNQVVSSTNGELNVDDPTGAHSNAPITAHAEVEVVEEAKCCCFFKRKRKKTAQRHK
Chain of Insulin receptor-related protein (Homo sapiens) (P14616 27-742 limits assumed): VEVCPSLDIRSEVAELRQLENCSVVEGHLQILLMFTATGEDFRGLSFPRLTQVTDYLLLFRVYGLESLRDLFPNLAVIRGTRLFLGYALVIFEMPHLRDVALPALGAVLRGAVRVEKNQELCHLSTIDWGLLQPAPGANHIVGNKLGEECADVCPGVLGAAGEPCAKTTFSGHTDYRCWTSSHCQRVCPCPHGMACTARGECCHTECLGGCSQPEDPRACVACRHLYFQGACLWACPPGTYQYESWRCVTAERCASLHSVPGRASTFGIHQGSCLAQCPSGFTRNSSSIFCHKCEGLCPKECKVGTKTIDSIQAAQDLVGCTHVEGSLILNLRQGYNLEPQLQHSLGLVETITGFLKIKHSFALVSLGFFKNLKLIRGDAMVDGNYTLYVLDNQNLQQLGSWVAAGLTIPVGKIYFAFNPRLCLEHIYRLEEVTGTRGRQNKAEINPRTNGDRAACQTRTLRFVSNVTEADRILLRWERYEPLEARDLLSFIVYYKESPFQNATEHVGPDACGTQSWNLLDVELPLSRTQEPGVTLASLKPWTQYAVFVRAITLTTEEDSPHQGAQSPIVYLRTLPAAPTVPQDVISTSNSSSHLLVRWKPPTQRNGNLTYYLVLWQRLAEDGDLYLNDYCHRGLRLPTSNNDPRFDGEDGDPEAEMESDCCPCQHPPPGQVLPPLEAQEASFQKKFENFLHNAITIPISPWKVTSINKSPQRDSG
Chain of Insulin receptor-related protein (Homo sapiens) (P14616 747-1297 limits assumed): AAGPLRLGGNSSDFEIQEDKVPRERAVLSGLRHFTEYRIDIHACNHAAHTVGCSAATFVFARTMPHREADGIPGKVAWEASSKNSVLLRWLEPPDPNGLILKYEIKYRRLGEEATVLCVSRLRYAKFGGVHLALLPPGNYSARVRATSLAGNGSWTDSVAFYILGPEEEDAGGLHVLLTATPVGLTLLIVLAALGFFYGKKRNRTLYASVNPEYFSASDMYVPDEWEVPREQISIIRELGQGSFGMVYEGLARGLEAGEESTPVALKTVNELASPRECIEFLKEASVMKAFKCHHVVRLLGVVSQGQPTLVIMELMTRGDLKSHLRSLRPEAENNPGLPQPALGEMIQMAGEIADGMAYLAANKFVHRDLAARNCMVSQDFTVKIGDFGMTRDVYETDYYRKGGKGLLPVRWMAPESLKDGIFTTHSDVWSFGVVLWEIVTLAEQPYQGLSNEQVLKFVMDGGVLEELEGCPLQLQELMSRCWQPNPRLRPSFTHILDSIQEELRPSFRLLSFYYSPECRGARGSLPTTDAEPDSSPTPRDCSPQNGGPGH

Consider `Cn1cc(-n2cnc3c(NCc4nc5cc(Cl)c(Cl)cc5[nH]4)nc(N4CCOCC4)nc32)cn1`, for which the results for the % of control in assay [1] and in assay [2] were 19.3% and 4.08%, respectively.

As for `CCN(CC)CCCCNc1ncc2cc(-c3cc(OC)cc(OC)c3)c(NC(=O)NC(C)(C)C)nc2n1`, the % of control in [3] was 100%.

In the case of `Cc1cc([C@@H](C)Nc2ccccc2C(=O)O)c2nc(N3CCOCC3)cc(=O)n2c1` [AZD-6482], the % of control in assay [4] was found to be 68%.

For the compound `C=CC(=O)Nc1cc(-n2c(=O)ccc3cnc4ccc(-c5ccc(NS(C)(=O)=O)cc5)cc4c32)ccc1C`, the % of control in [5] (at 1 µM) and in assay [5] (at 10 µM) was 100% each time.

In the case of `Cc1ccc(-c2ccc3c(ccc4sc5c(c43)NC[C@@H](C)NC5=O)n2)cn1`, the % of inhibition in assay [6] came out at 1%.

`O[C@H]1CC[C@H](Nc2ncc3nc(Nc4c(F)cc(F)cc4F)n([C@H]4CCOC4)c3n2)CC1` yielded a % of control in [7] of 94%.

`CCC(=O)N1CCN(c2ccc(-n3c(=O)ccc4cnc5ccc(-c6cnc7ccccc7c6)cc5c43)cc2C(F)(F)F)CC1` yielded a % of control in assay [8] of 58%.

Consider `CC(C)(O)[C@H](F)CN1Cc2cc(NC(=O)c3cnn4cccnc34)c(N3CCOCC3)cc2C1=O`, for which the dTM in [9] came to 1.6 K.

Turning to `COc1cc(N(C)c2ccnc3ccc(C(F)(F)F)cc23)cc(OC)c1OC`, the % binding in assay [10] came out at 82%; in assay [11] it was 87%.

The values are drawn from ChEMBL document CHEMBL5465560, “Selectivity Literature for EUbOPEN Chemogenomic Library” (2024).
